Active and inactive are the calls of the source. The rule behind the calls is not given here.
How the values were obtained:
NCI-H1975 [1] = test: Growth inhibition of human NCI-H1975 cells incubated for 5 days by SRB assay; assay type: functional, cell-based; conditions: NCI-H1975, 120 h
PC-9 = test: Growth inhibition of human PC-9 cells incubated for 5 days by SRB assay; assay type: functional, cell-based; conditions: PC-9, 120 h
A549 [2] = test: Growth inhibition of human A549 cells incubated for 5 days by SRB assay; assay type: functional, cell-based; conditions: A549, 120 h
[3] = Toxicity in po dosed CD-1 mouse assessed as maximum tolerated dose; assay type: organism-based; conditions: in vivo
[4] = biological target: T1, Epidermal growth factor receptor (Homo sapiens, UniProt P00533); test: Irreversible inhibition of EGFR in human A549 cells at 2 uM preincubated for 2 hrs followed by compound wash out with serum free media followed by EGF stimulation and measured after 30 mins by Western blot analysis; assay type: cell-based; conditions: time 2.5 hrs
T1 sequence (P00533 whole entry): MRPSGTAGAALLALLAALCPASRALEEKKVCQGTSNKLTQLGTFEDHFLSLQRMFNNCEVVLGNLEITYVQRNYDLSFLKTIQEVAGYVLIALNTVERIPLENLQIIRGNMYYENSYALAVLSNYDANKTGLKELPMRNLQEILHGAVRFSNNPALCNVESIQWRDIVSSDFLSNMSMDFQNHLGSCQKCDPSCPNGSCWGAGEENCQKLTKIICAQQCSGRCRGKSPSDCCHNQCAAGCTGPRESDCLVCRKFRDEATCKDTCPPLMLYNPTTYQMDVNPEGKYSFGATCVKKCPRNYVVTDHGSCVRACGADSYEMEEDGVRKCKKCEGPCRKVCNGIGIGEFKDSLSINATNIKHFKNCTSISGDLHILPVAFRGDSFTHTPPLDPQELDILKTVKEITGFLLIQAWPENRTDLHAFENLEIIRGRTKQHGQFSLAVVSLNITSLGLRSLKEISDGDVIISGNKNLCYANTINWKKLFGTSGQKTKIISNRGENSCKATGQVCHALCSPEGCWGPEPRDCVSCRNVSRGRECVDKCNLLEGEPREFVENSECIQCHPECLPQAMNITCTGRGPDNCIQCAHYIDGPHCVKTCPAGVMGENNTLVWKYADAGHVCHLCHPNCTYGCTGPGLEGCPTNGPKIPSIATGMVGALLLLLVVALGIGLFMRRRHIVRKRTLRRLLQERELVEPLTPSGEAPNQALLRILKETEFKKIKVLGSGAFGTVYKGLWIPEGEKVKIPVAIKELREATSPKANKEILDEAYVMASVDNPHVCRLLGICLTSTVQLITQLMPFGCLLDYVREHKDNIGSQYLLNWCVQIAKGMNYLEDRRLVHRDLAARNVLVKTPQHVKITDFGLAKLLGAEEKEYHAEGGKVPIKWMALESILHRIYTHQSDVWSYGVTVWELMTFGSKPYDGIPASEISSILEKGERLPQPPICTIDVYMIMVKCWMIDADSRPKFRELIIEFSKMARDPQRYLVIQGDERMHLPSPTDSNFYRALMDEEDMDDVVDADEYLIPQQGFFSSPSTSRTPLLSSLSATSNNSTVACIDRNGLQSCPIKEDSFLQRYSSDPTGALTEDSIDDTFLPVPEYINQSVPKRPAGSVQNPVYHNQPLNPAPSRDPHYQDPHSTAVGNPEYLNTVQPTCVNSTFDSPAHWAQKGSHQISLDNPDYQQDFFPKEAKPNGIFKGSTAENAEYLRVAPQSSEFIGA

[5] = biological target: T1, Epidermal growth factor receptor; test: Inhibition of EGFR phosphorylation in human PC-9 cells at 1 to 10 uM preincubated for 2 hrs followed by EGF stimulation and measured after 30 mins by Western blot analysis; assay type: cell-based; conditions: dose 1-10 µM, time 2.5 hrs
[6] = biological target: T1, Epidermal growth factor receptor; test: Inhibition of EGFR phosphorylation in human A549 cells at 1 to 10 uM preincubated for 2 hrs followed by EGF stimulation and measured after 30 mins by Western blot analysis; assay type: cell-based; conditions: dose 1-10 µM, time 2.5 hrs
[7] = biological target: T1, Epidermal growth factor receptor; test: Inhibition of EGFR phosphorylation in human NCI-H1975 cells at 1 to 10 uM preincubated for 2 hrs followed by EGF stimulation and measured after 30 mins by Western blot analysis; assay type: cell-based; conditions: dose 1-10 µM, time 2.5 hrs
[8] = biological target: T1, Epidermal growth factor receptor; test: Inhibition of EGFR phosphorylation in human PC-9 cells assessed as downregulation MAPK pathway at 1 to 10 uM preincubated for 2 hrs followed by EGF stimulation and measured after 30 mins by Western blot analysis; assay type: cell-based; conditions: dose 1-10 µM, time 2.5 hrs
[9] = biological target: T1, Epidermal growth factor receptor; test: Inhibition of EGFR phosphorylation in human PC-9 cells assessed as downregulation AKT pathway at 1 to 10 uM preincubated for 2 hrs followed by EGF stimulation and measured after 30 mins by Western blot analysis; assay type: cell-based; conditions: dose 1-10 µM, time 2.5 hrs
[10] = biological target: T1, Epidermal growth factor receptor; test: Inhibition of EGFR phosphorylation in human A549 cells assessed as downregulation MAPK pathway at 1 to 10 uM preincubated for 2 hrs followed by EGF stimulation and measured after 30 mins by Western blot analysis; assay type: cell-based; conditions: dose 1-10 µM, time 2.5 hrs
[11] = biological target: T1, Epidermal growth factor receptor; test: Inhibition of EGFR phosphorylation in human A549 cells assessed as downregulation AKT pathway at 1 to 10 uM preincubated for 2 hrs followed by EGF stimulation and measured after 30 mins by Western blot analysis; assay type: cell-based; conditions: dose 1-10 µM, time 2.5 hrs
[12] = biological target: T1, Epidermal growth factor receptor; test: Inhibition of EGFR phosphorylation in human NCI-H1975 cells assessed as downregulation MAPK pathway at 1 to 10 uM preincubated for 2 hrs followed by EGF stimulation and measured after 30 mins by Western blot analysis; assay type: cell-based; conditions: dose 1-10 µM, time 2.5 hrs
[13] = biological target: T1, Epidermal growth factor receptor; test: Inhibition of EGFR phosphorylation in human NCI-H1975 cells assessed as downregulation AKT pathway at 1 to 10 uM preincubated for 2 hrs followed by EGF stimulation and measured after 30 mins by Western blot analysis; assay type: cell-based; conditions: dose 1-10 µM, time 2.5 hrs
Calf thymus DNA [14] = test: Binding affinity to calf thymus DNA assessed as compound hydrolysis at 10 mM after 5 days by LC-MS/MS analysis; assay type: nucleic-acid assay; conditions: Bos taurus, time 5.0 day
Calf thymus DNA [15] = test: Binding affinity to calf thymus DNA assessed as adenine alkylated adduct formation at 10 mM after 5 days by LC-MS/MS analysis; assay type: nucleic-acid assay; conditions: Bos taurus, time 5.0 day
Calf thymus DNA [16] = test: Binding affinity to calf thymus DNA assessed as guanine alkylated adduct formation at 10 mM after 5 days by LC-MS/MS analysis; assay type: nucleic-acid assay; conditions: Bos taurus, time 5.0 day
A549 [17] = test: Induction of DNA damage in human A549 cells at 0.1 to 10 uM after 2 hrs by comet assay; assay type: functional, cell-based; conditions: dose 0.1-10 µM
[18] = biological target: T1, Epidermal growth factor receptor; test: Inhibition of EGFR (unknown origin) using poly (Glu,Tyr) 4:1 as substrate incubated for 8 mins in presence of ATP by colorimetric analysis
NCI-H1975 [19] = test: Potency index, ratio of gefitinib IC50 to test compound IC50 for growth inhibition of human NCI-H1975 cells; assay type: functional
NCI-H1975 [20] = test: Potency index, ratio of gefitinib IC50 in presence of chlorambucil to test compound IC50 for growth inhibition of human NCI-H1975 cells; assay type: functional
A549 [21] = test: Potency index, ratio of gefitinib IC50 to test compound IC50 for growth inhibition of human A549 cells; assay type: functional
A549 [22] = test: Potency index, ratio of gefitinib IC50 in presence of chlorambucil to test compound IC50 for growth inhibition of human A549 cells; assay type: functional

Row | Compound | IC50 (NCI-H1975 [1]) [µM] | IC50 (PC-9) [µM] | IC50 (A549 [2]) [µM] | MTD [3] [mg/kg] | inhibition [4] | inhibition [5] | inhibition [6] | inhibition [8] | inhibition [9] | inhibition [10] | inhibition [11] | Activity (Calf thymus DNA [14]) | Activity (Calf thymus DNA [15]) | Activity (Calf thymus DNA [16]) | Activity (A549 [17]) | also measured
1 | OCCN(CCO)c1ccc2ncnc(Nc3cccc(Br)c3)c2c1 | 18.1 | 0.07 | 46.6 |  |  |  |  |  |  |  |  |  |  |  |  | 
2 | ClCCN(CCCl)c1ccc2ncnc(Nc3cccc(Br)c3)c2c1 | 6.07 | 0.203 | 6.51 | 150 | Active | Active | Active | Active | Active | Active | Active | Active | Active | Active | Active | inhibition [7]: Active; inhibition [12]: Active; inhibition [13]: Active; IC50 [18]: 1.26 µM
3 | CC(=O)OCCN(CCO)c1ccc2ncnc(Nc3cccc(Br)c3)c2c1 | 16 | 0.086 | 48 |  |  |  |  |  |  |  |  |  |  |  |  | 
4 | COc1cc2ncnc(Nc3ccc(F)c(Cl)c3)c2cc1OCCCN1CCOCC1 |  |  |  |  |  |  |  |  |  |  |  |  |  |  | inactive | 
5 | CC(=O)OCCN(C)c1ccc2ncnc(Nc3cccc(Br)c3)c2c1 | 9.4 | 0.098 | 30.5 |  |  |  |  |  |  |  |  |  |  |  |  | 
6 | CC(=O)OCCN(CCOC(C)=O)c1ccc2ncnc(Nc3cccc(Br)c3)c2c1 | 20.2 | 0.13 | 52.6 |  |  |  |  |  |  |  |  |  |  |  |  | 
7 | ClCCNc1ccc2ncnc(Nc3cccc(Br)c3)c2c1 | 0.48 | 0.09 | 2.06 | 150 | Active | Active | Active | Active | Active | Active | Active | Active | Active | Active | Active | 
8 | O=C(O)CCCc1ccc(N(CCCl)CCCl)cc1 [CHLORAMBUCIL] | 28.2 | 7.17 | 24.5 |  |  | inactive | inactive |  |  |  |  |  |  |  | inactive | inhibition [7]: inactive
9 | CN(CCO)c1ccc2ncnc(Nc3cccc(Br)c3)c2c1 | 11.3 | 0.103 | 34.5 |  |  |  |  |  |  |  |  |  |  |  |  | 
10 | CN(CCCl)c1ccc2ncnc(Nc3cccc(Br)c3)c2c1 | 2.81 | 0.21 | 3.16 | 150 | inactive | Active | Active | Active | Active | Active | Active | Active | Active | Active | Active | Ratio IC50 (NCI-H1975 [19]): 2; Ratio IC50 (NCI-H1975 [20]): 2; Ratio IC50 (A549 [21]): 2; Ratio IC50 (A549 [22]): 2; IC50 [18]: 0.504 µM

Reference: ChEMBL document CHEMBL4680216, “Comparative analysis of the dual EGFR-DNA targeting and growth inhibitory properties of 6-mono-alkylamino- and 6,6-dialkylaminoquinazoline-based type II combi-molecules” (Eur J Med Chem, 2020)
